Measurements taken from US7101888B2, “Oral liquid tolterodine composition” (Pharmacia & UpJohn Company, priority 2002, dated 2006).

What was measured:
[1] = Chemical stability of tolterodine in aqueous media; format: physicochemical
[2] = test system: muscarinic receptors of the salivary gland; details: compared with oxybutynin; cited from earlier work

## Cc1ccc(O)c([C@H](CCN(C(C)C)C(C)C)c2ccccc2)c1 [tolterodine, (R)-N,N-diisopropyl-3-(2-hydroxy-5-methylphenyl)-3-phenylpropanamine]
[1]; alkaline pH
  stability in aqueous solutions of tolterodine salts: unstable
[1]; aqueous solutions of tolterodine salts
  pH of optimum stability: about 4
[1]; neutral to alkaline pH levels
  chemical stability in aqueous media: chemical instability
[2]
  affinity for the muscarinic receptors of the salivary gland relative to oxybutynin: about eight times lower
